± gives the standard deviation of the averaged measurements.
Columns and labels:
HS-PSS [1] = assay: drug sensitivity score (DSS, CellTiter-Glo viability, 72 h) (DSS (dimensionless)); higher = more sensitive; extreme values may be limits of the assay
Method in brief: (§1)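 MPNST cell lines and primary human Schwann cells were seeded at 750–1000 cells per well into 384-well plates preprinted with each compound at five concentrations in 10-fold steps, then incubated 72 h at 37 °C, 5% CO2. CellTiter-Glo ATP luminescence gave viability, scaled between vehicle and positive-control wells, with duplicates averaged where present. Curves were fitted with a four-parameter logistic model. Percent inhibition refers to the top concentration, while drug sensitivity score and relative IC50, censored at the top concentration, come from these fits.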

HS-Sch-2 [2] = assay: as above
Method in brief: as §1

[3] = tested on: HSC1 (primary human Schwann cells); assay: as above
Method in brief: as §1

[4] = tested on: HSC2 (primary human Schwann cells); assay: as above
Method in brief: as §1

S1507-2 [5] = assay: as above
Method in brief: as §1

S462 [6] = assay: as above
Method in brief: as §1

ST8814 [7] = assay: as above
Method in brief: as §1

STS26T [8] = assay: as above
Method in brief: as §1

YST-1 [9] = assay: as above
Method in brief: as §1

HS-PSS [10] = assay: drug sensitivity score (DSS, CellTox-Green cytotoxicity, 72 h) (DSS (dimensionless)); higher = more cytotoxic; extreme values may be limits of the assay
Method in brief: (§2)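 For 72 h at 37 °C, MPNST cell lines and primary human Schwann cells were exposed in 384-well plates to five 10-fold compound dilutions. CellTox-Green, added before seeding at a final 1:1000 dilution, gave fluorescence from DNA released by disrupted cells. Signals were scaled to vehicle and positive-control wells, cultures failing plate quality control were left out, and four-parameter logistic fits were applied. Relative IC50 and drug sensitivity score were derived from the fits, with IC50 censored at the top concentration.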

[11] = tested on: HSC1 (primary human Schwann cells); assay: as above
Method in brief: as §2

[12] = tested on: HSC2 (primary human Schwann cells); assay: as above
Method in brief: as §2

S1507-2 [13] = assay: as above
Method in brief: as §2

ST8814 [14] = assay: as above
Method in brief: as §2

STS26T [15] = assay: as above
Method in brief: as §2

HS-PSS [16] = assay: % inhibition of CellTiter-Glo viability at highest tested concentration (72 h), relative to DMSO and benzethonium chloride controls; higher = more inhibition
Method in brief: as §1

HS-Sch-2 [17] = assay: as above
Method in brief: as §1

[18] = tested on: HSC1 (primary human Schwann cells); assay: as above
Method in brief: as §1

[19] = tested on: HSC2 (primary human Schwann cells); assay: as above
Method in brief: as §1

S1507-2 [20] = assay: as above
Method in brief: as §1

S462 [21] = assay: as above
Method in brief: as §1

ST8814 [22] = assay: as above
Method in brief: as §1

STS26T [23] = assay: as above
Method in brief: as §1

YST-1 [24] = assay: as above
Method in brief: as §1

| Compound | drug sensitivity score (HS-PSS [1]) | drug sensitivity score (HS-Sch-2 [2]) | drug sensitivity score [3] | drug sensitivity score [4] | drug sensitivity score (S1507-2 [5]) | drug sensitivity score (S462 [6]) | drug sensitivity score (ST8814 [7]) | drug sensitivity score (STS26T [8]) | drug sensitivity score (YST-1 [9]) | drug sensitivity score (HS-PSS [10]) | drug sensitivity score [11] | drug sensitivity score [12] | drug sensitivity score (S1507-2 [13]) | drug sensitivity score (ST8814 [14]) | drug sensitivity score (STS26T [15]) | % inhibition (HS-PSS [16]) [%] | % inhibition (HS-Sch-2 [17]) [%] | % inhibition [18] [%] | % inhibition [19] [%] | % inhibition (S1507-2 [20]) [%] | % inhibition (S462 [21]) [%] | % inhibition (ST8814 [22]) [%] | % inhibition (STS26T [23]) [%] | % inhibition (YST-1 [24]) [%] |
| --- | --- | --- | --- | --- | --- | --- | --- | --- | --- | --- | --- | --- | --- | --- | --- | --- | --- | --- | --- | --- | --- | --- | --- | --- |
| CC(C)(C)c1cc(NC(=O)Nc2ccc(-c3cn4c(n3)sc3cc(OCCN5CCOCC5)ccc34)cc2)no1 [Quizartinib] (max concentration tested 1000 nM) | 0 | 0.1 | 3.73 | 1.32 | 1.94 ± 0.75 | 4.8 ± 1.2 | 2.56 | 1.24 | 7.45 | 0 | 0 | 0 | 0 | 0 | 0 | -10.7 | 14.4 | 47.8 | 36.6 | 21.3 ± 1.4 | 64.2 ± 37 | 15.8 | 15.3 | 78.7 |
| Cn1c(Nc2ccc(C(F)(F)F)cc2)nc2cc(Oc3ccnc(-c4ncc(C(F)(F)F)[nH]4)c3)ccc21 [RAF265] (max concentration tested 1000 nM) | 4.44 | 1.56 | 11.2 | 14.4 | 4.23 ± 0.6 | 5.79 ± 0.67 | 3.46 | 3.93 | 2.73 | 0 | 0 | 0 | 0 | 0 | 0 | 52.2 | 22.3 | 70.8 | 68.9 | 43.6 ± 6 | 51.9 ± 1.2 | 33.1 | 40.9 | 30.2 |
| CNC(=O)c1ccc(N2C(=S)N(c3ccc(C#N)c(C(F)(F)F)c3)C(=O)C23CCC3)cc1F [RD162] (max concentration tested 10000 nM) | 0 | 0 | 0.0127 | 0 | 1.24 ± 1.8 | 0 | 0 | 0 | 0 | 0 | 0 | 0 | 2.37 ± 3.4 | 0 | 0 | -0.07 | 9.66 | 11.2 | 8.13 | 10.7 ± 20 | -0.791 ± 7.8 | 10 | 4.23 | 7.83 |
| Cc1cnc(NC(=O)Nc2cc(Br)c(C)cc2OC[C@@H]2CNCCO2)cn1 [Rabusertib] (max concentration tested 1000 nM) | 0.93 | 4.93 | 0.0015 | 1.36 | 3.39 ± 0.54 | 5.07 ± 0.2 | 0 | 2.75 | 1.96 | 0 | 0.0001 | 0 | 1.21 ± 1.4 | 0 | 1.88 | 17.4 | 84.7 | 11.3 | 22.3 | 51.1 ± 10 | 91.37 ± 0.63 | 2.25 | 36.4 | 32.8 |
| CC(C)(C)Cn1c(N)nc2ccc(-c3[nH]c(C(C)(C)C)nc3-c3ccc(F)cc3)nc21 [Ralimetinib] (max concentration tested 10000 nM) | 1.76 | 2.8 | 2.2 | 3.4 | 2.27 ± 0.73 | 0.51 ± 0.72 | 2.03 | 1.33 | 7.83 | 0 | 0 | 0 | 0 | 0 | 0 | 45.7 | 54.9 | 34.9 | 34 | 33.8 ± 6.8 | 13.4 ± 7.5 | 28.2 | 28.7 | 41.8 |
| O=C(c1ccc(OCCN2CCCCC2)cc1)c1c(-c2ccc(O)cc2)sc2cc(O)ccc12 [Raloxifene] (max concentration tested 10000 nM) | 4.8 | 7.33 | 2.17 | 3.34 | 2.99 ± 0.22 | 0.649 ± 0.51 | 1.9 | 1.99 | 1.7 | 0 | 0 | 0 | 1.4 ± 1.7 | 1.85 | 0.897 | 44.5 | 85.8 | 42.1 | 41.8 | 54.55 ± 0.068 | 19.7 ± 3.4 | 36.5 | 41.3 | 25.5 |
| CNC(=O)c1cc(Oc2ccc(NC(=O)Nc3cc(C(C)(C)C)nn3-c3ccc4ncccc4c3)c(F)c2)ccn1 [Rebastinib] (max concentration tested 1000 nM) | 0 | 0 | 0 | 0 | 0 | 0 | 0 | 0 | 0 | 0 | 0 | 0 | 0 | 0 | 0 | -1.59 | -12.3 | 0.317 | -5.07 | -4.17 ± 6.4 | -0.0982 ± 1.4 | -2.38 | -1.27 | 0.76 |
| COc1cc(F)c(F)c(Nc2ccc(I)cc2F)c1NS(=O)(=O)C1(C[C@H](O)CO)CC1 [Refametinib] (max concentration tested 10000 nM) | 5.39 | 6.81 | 8.11 | 10.5 | 13.8 ± 1.3 | 14.9 ± 1.8 | 14.8 | 8.43 | 0.24 | 0.98 | 0 | 0.276 | 11.1 ± 3.6 | 8.62 | 1.17 | 63.2 | 75.5 | 69.2 | 69 | 86.7 ± 4.6 | 94.83 ± 0.55 | 99.1 | 53 | 17.5 |
| CNC(=O)c1cc(Oc2ccc(NC(=O)Nc3ccc(Cl)c(C(F)(F)F)c3)c(F)c2)ccn1 [Regorafenib] (max concentration tested 10000 nM) | 1.9 | 4.17 | 4.61 | 6.19 | 2.21 ± 1.2 | 7.19 ± 0.46 | 7.57 | 4.35 | 6.49 | 0 | 0 | 0 | 0 | 1.04 | 0.529 | 43 | 84.1 | 73.8 | 78.6 | 33.7 ± 17 | 80.9 ± 5.1 | 74.2 | 49.9 | 73 |
| CO[C@H]1C[C@@H]2CC[C@@H](C)[C@@](O)(O2)C(=O)C(=O)N2CCCC[C@H]2C(=O)O[C@H]([C@H](C)C[C@@H]2CC[C@@H](OP(C)(C)=O)[C@H](OC)C2)CC(=O)[C@H](C)/C=C(\C)[C@@H](O)[C@@H](OC)C(=O)[C@H](C)C[C@H](C)/C=C/C=C/C=C/1C [Ridaforolimus] (max concentration tested 100 nM) | 5.02 | 4.49 | 16.8 | 15.8 | 7.07 ± 0.28 | 8.13 ± 1.3 | 8.41 | 13.1 | 9.63 | 0 | 0 | 0 | 0 | 0 | 0 | 28.6 | 31 | 51.5 | 52.6 | 35.9 ± 0.46 | 40.4 ± 5.1 | 32.1 | 48.8 | 43.6 |
| CS(=O)(=O)c1ccc(C2=C(c3ccccc3)C(=O)OC2)cc1 [Rofecoxib] (max concentration tested 10000 nM) | 0 | 0 | 0 | 0 | 0 | 0 | 0 | 0 | 0 | 0 | 0 | 0 | 0 | 0 | 0 | -0.36 | -5.42 | 2.15 | -0.797 | 3.17 ± 6.5 | -1.92 ± 0.69 | 3.44 | -0.415 | 1.11 |
| CN(C)C[C@@H]1CCn2cc(c3ccccc32)C2=C(C(=O)NC2=O)c2cn(c3ccccc23)CCO1 [Ruboxistaurin] (max concentration tested 10000 nM) | 5.24 | 5.19 | 5.06 | 7.78 | 7.37 ± 0.77 | 6.12 ± 0.41 | 3.54 | 5.76 | 10 | 1.36 | 7.83 | 8.33 | 6.69 ± 0.61 | 0.807 | 6.98 | 86.7 | 100 | 93.9 | 96.3 | 98.5 ± 4.9 | 78.9 ± 11 | 39.6 | 97.6 | 99.7 |
| CNCc1ccc(-c2[nH]c3cc(F)cc4c3c2CCNC4=O)cc1 [Rucaparib] (max concentration tested 10000 nM) | 2.72 | 1.1 | 0 | 0 | 0 | 2.11 ± 0.82 | 0 | 0 | 8.59 | 0 | 0 | 0 | 3.1 ± 4.4 | 0 | 0 | 30.1 | 22.2 | 4.91 | 8.78 | -0.362 ± 7.1 | 27.7 ± 9 | 4.21 | 4.71 | 60.9 |
